Assays:
[1] = target: Angiotensin-converting enzyme (Homo sapiens) (UniProt P12821); assay: ACE (h) Eurofins-Cerep enzyme and uptake assay; settings: Compound concentration 10.0 uM
[2] = target: Sodium/potassium-transporting ATPase (Sus scrofa) (UniProt P05027+P05024+D2WKD8+D2WKD7+F1ST41); assay: ATPase (Na+/K+) Eurofins-Cerep enzyme and uptake assay; assay type: protein-complex assay; settings: Compound concentration 10.0 uM
[3] = target: Alpha-1A adrenergic receptor (Homo sapiens) (UniProt P35348); assay: Alpha1A (h) Eurofins-Cerep binding assay; parameters: ligand concentration 0.1 nM; settings: filed as antagonist, Compound concentration 10.0 uM
[4] = target: T1, Alpha-2B adrenergic receptor (Homo sapiens) (UniProt P18089); assay: Alpha2B (h) Eurofins-Cerep binding assay; parameters: ligand concentration 2.5 nM; settings: filed as antagonist, Compound concentration 10.0 uM
T1 sequence (whole entry): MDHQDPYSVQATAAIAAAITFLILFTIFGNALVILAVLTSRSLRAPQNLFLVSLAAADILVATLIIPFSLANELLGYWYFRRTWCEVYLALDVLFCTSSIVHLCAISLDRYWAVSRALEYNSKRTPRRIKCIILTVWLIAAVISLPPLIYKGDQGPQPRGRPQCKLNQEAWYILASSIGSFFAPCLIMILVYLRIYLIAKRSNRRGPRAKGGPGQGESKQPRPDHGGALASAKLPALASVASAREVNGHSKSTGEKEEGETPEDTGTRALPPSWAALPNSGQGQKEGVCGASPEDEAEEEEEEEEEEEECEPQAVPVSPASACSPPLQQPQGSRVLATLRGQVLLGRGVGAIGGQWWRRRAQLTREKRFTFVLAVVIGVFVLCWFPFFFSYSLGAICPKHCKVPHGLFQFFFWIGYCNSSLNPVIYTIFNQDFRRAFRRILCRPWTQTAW

[5] = target: Tyrosine-protein kinase ABL1 (Homo sapiens) (UniProt P00519); settings: Compound concentration 1000.0 nM
Chain of Tyrosine-protein kinase ABL1 (Homo sapiens) (P00519 whole entry): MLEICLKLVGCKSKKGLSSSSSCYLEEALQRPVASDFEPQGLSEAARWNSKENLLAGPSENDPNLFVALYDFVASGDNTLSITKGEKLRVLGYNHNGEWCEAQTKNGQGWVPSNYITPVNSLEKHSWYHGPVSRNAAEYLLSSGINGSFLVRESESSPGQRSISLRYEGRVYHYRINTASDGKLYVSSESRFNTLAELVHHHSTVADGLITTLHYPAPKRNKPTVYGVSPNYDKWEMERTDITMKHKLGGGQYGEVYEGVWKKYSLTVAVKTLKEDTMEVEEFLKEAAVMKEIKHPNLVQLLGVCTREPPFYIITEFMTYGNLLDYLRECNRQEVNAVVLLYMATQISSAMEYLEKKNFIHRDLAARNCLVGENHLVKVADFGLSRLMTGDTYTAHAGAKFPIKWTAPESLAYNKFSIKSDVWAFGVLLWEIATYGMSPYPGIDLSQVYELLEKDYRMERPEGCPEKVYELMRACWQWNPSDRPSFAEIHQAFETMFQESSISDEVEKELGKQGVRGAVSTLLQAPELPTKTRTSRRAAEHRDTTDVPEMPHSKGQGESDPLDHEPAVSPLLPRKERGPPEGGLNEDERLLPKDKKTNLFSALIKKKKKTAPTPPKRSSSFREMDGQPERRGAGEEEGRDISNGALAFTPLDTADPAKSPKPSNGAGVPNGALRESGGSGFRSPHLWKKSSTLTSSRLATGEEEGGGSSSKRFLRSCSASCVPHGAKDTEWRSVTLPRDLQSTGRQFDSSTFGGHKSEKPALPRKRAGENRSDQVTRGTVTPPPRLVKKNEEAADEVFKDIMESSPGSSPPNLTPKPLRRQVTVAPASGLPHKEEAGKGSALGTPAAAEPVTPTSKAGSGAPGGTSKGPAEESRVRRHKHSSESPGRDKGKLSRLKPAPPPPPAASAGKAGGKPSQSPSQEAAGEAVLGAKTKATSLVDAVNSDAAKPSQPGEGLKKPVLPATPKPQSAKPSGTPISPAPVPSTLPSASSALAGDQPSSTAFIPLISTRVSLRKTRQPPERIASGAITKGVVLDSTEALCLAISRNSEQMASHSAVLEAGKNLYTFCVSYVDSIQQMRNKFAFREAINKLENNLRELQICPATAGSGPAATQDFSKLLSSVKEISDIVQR

[6] = target: RAC-alpha serine/threonine-protein kinase (Homo sapiens) (UniProt P31749); settings: Compound concentration 1000.0 nM
[7] = target: Mitogen-activated protein kinase kinase kinase 5 (Homo sapiens) (UniProt Q99683); settings: Compound concentration 1000.0 nM
[8] = target: Serine/threonine-protein kinase Chk2 (Homo sapiens) (UniProt O96017); settings: Compound concentration 1000.0 nM
[9] = target: Dual specificity protein kinase CLK1 (Homo sapiens) (UniProt P49759); settings: Compound concentration 1000.0 nM
Chain of Dual specificity protein kinase CLK1 (Homo sapiens) (P49759 whole entry, looked up): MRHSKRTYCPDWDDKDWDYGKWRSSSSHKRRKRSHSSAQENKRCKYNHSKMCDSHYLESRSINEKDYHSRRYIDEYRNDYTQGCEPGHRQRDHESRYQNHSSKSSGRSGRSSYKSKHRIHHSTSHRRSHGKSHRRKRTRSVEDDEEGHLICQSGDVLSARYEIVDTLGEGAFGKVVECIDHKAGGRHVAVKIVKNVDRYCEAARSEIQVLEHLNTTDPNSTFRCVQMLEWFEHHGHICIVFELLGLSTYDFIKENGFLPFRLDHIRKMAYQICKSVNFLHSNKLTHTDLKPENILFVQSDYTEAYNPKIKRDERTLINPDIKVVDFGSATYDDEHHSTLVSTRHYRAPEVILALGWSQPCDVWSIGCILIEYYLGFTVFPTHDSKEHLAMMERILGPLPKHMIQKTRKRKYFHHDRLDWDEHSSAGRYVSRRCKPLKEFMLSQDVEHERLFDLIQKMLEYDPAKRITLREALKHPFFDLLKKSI

[10] = system: Epidermal growth factor receptor (Homo sapiens), P00533 [UNDEFINED MUTATION]; settings: Compound concentration 1000.0 nM
[11] = system: Receptor-type tyrosine-protein kinase FLT3 (Homo sapiens), P36888 [UNDEFINED MUTATION]; settings: Compound concentration 1000.0 nM
[12] = target: Insulin receptor-related protein (Homo sapiens) (UniProt P14616); settings: Compound concentration 1000.0 nM
[13] = target: MAP kinase-activated protein kinase 2 (Homo sapiens) (UniProt P49137); settings: Compound concentration 1000.0 nM
[14] = target: Mitogen-activated protein kinase 14 (Homo sapiens) (UniProt Q16539); settings: Compound concentration 1000.0 nM
Chain of Mitogen-activated protein kinase 14 (Homo sapiens) (Q16539 whole entry): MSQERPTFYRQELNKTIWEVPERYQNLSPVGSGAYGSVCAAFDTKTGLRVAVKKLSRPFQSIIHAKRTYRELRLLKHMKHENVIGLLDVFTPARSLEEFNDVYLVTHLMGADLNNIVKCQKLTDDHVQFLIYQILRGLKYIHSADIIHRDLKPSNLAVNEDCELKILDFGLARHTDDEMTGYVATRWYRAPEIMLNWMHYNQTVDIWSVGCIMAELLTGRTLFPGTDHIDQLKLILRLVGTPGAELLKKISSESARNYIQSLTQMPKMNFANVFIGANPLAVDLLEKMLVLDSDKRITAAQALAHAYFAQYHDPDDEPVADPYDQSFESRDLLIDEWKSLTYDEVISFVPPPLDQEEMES

[15] = target: Serine/threonine-protein kinase PAK 6 (Homo sapiens) (UniProt Q9NQU5); settings: Compound concentration 1000.0 nM
[16] = target: Cyclin-dependent kinase 18 (Homo sapiens) (UniProt Q07002); settings: Compound concentration 1000.0 nM
[17] = system: Phosphatidylinositol 4,5-bisphosphate 3-kinase catalytic subunit alpha isoform (Homo sapiens), P42336 [C420R]; settings: Compound concentration 1000.0 nM
[18] = system: Phosphatidylinositol 4,5-bisphosphate 3-kinase catalytic subunit alpha isoform (Homo sapiens), P42336 [H1047L]; settings: Compound concentration 1000.0 nM
Chain of Phosphatidylinositol 4,5-bisphosphate 3-kinase catalytic subunit alpha isoform (Homo sapiens), P42336 [H1047L] (P42336 whole entry H1047L, canonical isoform): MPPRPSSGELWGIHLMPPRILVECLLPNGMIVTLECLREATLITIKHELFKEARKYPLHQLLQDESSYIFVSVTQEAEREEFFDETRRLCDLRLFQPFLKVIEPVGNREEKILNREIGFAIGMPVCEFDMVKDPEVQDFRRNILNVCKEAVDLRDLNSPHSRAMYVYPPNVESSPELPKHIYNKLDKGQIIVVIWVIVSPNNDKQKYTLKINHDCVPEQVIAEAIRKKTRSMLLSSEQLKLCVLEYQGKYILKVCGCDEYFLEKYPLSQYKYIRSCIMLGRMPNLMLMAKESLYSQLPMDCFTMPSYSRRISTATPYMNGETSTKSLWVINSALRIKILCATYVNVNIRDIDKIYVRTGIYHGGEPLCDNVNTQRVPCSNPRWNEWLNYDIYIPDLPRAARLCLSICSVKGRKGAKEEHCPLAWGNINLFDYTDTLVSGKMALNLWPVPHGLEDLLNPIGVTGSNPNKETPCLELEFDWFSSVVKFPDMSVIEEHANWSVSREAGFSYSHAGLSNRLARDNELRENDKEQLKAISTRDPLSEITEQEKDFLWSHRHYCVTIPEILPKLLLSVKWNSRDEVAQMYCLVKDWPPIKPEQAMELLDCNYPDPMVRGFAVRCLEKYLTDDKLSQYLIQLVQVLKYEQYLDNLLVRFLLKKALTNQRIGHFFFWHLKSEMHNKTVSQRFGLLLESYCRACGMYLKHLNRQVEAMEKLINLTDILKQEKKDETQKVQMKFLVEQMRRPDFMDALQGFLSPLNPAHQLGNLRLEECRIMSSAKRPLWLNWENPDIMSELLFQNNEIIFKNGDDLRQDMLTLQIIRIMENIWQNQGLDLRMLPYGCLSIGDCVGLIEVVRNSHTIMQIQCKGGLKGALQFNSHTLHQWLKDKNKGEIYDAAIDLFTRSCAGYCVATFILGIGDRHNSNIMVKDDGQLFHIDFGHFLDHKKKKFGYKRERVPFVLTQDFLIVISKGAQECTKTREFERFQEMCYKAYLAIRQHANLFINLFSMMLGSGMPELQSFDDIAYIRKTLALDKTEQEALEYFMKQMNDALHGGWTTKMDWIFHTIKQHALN

[19] = system: Phosphatidylinositol 4,5-bisphosphate 3-kinase catalytic subunit alpha isoform (Homo sapiens), P42336 [I800L]; settings: Compound concentration 1000.0 nM
[20] = target: Protein-tyrosine kinase 2-beta (Homo sapiens) (UniProt Q14289); settings: Compound concentration 1000.0 nM
[21] = target: RAF proto-oncogene serine/threonine-protein kinase (Homo sapiens) (UniProt P04049); settings: Compound concentration 1000.0 nM
[22] = target: Serine/threonine-protein kinase RIO2 (Homo sapiens) (UniProt Q9BVS4); settings: Compound concentration 1000.0 nM
Chain of Serine/threonine-protein kinase RIO2 (Homo sapiens) (Q9BVS4 whole entry, looked up): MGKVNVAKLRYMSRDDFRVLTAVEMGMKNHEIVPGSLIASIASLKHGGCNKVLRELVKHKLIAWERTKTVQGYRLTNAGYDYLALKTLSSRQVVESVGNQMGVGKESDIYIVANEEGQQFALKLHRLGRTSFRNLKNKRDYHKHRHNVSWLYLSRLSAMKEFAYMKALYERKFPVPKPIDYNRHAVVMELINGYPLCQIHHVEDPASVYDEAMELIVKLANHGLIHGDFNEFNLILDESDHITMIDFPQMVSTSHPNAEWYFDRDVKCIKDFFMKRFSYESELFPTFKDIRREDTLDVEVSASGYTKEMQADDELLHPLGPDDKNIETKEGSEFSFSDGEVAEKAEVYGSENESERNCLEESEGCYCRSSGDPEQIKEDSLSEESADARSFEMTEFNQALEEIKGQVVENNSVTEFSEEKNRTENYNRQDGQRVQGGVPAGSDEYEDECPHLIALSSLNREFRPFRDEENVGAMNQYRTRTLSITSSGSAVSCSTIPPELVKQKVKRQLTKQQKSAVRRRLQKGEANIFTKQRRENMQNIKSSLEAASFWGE

[23] = target: Ribosomal protein S6 kinase alpha-3 (Homo sapiens) (UniProt P51812); settings: Compound concentration 1000.0 nM
[24] = target: Ribosomal protein S6 kinase beta-1 (Homo sapiens) (UniProt P23443); settings: Compound concentration 1000.0 nM
[25] = target: Serine/threonine-protein kinase SBK1 (Homo sapiens) (UniProt Q52WX2); settings: Compound concentration 1000.0 nM
Chain of Serine/threonine-protein kinase SBK1 (Homo sapiens) (Q52WX2 whole entry): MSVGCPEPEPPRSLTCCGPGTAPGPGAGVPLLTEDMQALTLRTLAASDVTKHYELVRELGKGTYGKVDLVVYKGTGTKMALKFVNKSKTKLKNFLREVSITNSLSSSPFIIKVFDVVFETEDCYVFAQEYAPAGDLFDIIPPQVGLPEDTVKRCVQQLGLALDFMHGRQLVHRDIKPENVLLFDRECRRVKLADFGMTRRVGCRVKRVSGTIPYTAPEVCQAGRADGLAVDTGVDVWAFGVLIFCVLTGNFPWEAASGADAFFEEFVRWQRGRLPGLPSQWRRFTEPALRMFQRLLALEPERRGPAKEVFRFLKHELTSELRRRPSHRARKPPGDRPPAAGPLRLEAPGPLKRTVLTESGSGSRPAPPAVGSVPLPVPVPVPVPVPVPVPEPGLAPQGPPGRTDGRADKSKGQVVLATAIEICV

[26] = target: Serine/threonine-protein kinase Sgk2 (Homo sapiens) (UniProt Q9HBY8); settings: Compound concentration 1000.0 nM
[27] = target: Tyrosine-protein kinase SYK (Homo sapiens) (UniProt P43405); settings: Compound concentration 1000.0 nM
[28] = target: Serine/threonine-protein kinase WNK4 (Homo sapiens) (UniProt Q96J92); settings: Compound concentration 1000.0 nM
[29] = target: D(1A) dopamine receptor (Homo sapiens) (UniProt P21728); settings: Compound concentration 10.0 uM
Chain of D(1A) dopamine receptor (Homo sapiens) (P21728 whole entry): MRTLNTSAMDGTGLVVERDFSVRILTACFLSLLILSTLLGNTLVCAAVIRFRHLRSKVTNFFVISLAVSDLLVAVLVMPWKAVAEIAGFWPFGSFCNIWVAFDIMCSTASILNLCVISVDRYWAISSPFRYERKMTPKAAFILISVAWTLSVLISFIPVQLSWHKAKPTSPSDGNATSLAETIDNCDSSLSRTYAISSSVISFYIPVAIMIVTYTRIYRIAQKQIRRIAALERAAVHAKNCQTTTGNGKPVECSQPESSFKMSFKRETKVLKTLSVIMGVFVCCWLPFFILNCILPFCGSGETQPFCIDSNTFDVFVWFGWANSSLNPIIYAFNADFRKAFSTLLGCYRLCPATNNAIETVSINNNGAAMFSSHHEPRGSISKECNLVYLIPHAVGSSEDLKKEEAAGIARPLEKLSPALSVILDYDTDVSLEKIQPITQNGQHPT

[30] = target: D(1B) dopamine receptor (Homo sapiens) (UniProt P21918); settings: Compound concentration 10.0 uM
Chain of D(1B) dopamine receptor (Homo sapiens) (P21918 whole entry): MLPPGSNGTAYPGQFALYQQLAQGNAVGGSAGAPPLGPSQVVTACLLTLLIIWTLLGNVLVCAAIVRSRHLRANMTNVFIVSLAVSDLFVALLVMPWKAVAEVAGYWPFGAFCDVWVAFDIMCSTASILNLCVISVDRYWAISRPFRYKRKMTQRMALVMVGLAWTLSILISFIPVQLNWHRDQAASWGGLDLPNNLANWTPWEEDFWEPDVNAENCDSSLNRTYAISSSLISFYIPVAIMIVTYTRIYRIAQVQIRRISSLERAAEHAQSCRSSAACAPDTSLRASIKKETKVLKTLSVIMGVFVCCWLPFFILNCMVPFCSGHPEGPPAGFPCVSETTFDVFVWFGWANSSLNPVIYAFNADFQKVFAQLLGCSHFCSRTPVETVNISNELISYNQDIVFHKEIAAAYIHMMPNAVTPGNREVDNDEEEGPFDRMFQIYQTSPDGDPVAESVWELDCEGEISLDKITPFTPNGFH

[31] = target: T2, Alpha-1B adrenergic receptor (Homo sapiens) (UniProt P35368); settings: Compound concentration 10.0 uM
T2 sequence (whole entry): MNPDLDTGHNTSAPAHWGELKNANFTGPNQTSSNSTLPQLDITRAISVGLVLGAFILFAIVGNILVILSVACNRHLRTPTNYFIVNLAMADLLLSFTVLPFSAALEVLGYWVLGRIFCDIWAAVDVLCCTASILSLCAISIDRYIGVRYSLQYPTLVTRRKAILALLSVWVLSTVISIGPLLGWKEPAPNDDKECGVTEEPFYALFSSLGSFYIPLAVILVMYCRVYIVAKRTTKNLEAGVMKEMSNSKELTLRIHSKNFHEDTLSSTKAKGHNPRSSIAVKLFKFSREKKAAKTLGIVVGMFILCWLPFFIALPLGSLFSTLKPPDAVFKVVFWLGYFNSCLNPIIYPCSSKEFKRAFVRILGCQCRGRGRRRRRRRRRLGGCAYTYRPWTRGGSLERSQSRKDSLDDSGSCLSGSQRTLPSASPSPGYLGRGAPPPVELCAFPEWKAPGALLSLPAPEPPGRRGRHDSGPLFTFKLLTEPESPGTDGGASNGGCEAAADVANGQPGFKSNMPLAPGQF

| SMILES | % Inhibition of Control Values (Mean n=2) [1] [%] | % Inhibition of Control Values (Mean n=2) [2] [%] | % Inhibition of Control Specific Binding (Mean n=2) [3] [%] | % Inhibition of Control Specific Binding (Mean n=2) [4] [%] | residual activity [5] [%] | residual activity [6] [%] | residual activity [7] [%] | residual activity [8] [%] | residual activity [9] [%] | residual activity [10] [%] | residual activity [11] [%] | residual activity [12] [%] | residual activity [13] [%] | residual activity [14] [%] | residual activity [15] [%] | residual activity [16] [%] | residual activity [17] [%] | residual activity [18] [%] | residual activity [19] [%] | residual activity [20] [%] | further results |
| --- | --- | --- | --- | --- | --- | --- | --- | --- | --- | --- | --- | --- | --- | --- | --- | --- | --- | --- | --- | --- | --- |
| COc1ccc2c(c1)O[C@H](c1ccc(OC)c(OC)c1)C[C@@H]2NC(=O)C1(c2ccc3c(c2)OC(F)(F)O3)CC1 [A-1596584] | -28.5 | 2.2 | 27.3 | 36.4 | 93 | 63 | 100 | 100 | 100 | 100 | 72 | 100 | 100 | 90 | 100 | 100 | 91 | 100 | 97 | 100 | residual activity [21]: 100%; residual activity [22]: 100%; residual activity [23]: 74%; residual activity [24]: 91%; residual activity [25]: 90%; residual activity [26]: 100%; residual activity [27]: 100%; residual activity [28]: 83%; inhibition [29]: 35.1%; inhibition [30]: 20%; inhibition [31]: 5.97% |
| COc1ccc2c(c1)O[C@@H](c1ccc(OC)c(OC)c1)C[C@H]2NC(=O)C1(c2ccc3c(c2)OC(F)(F)O3)CC1 [A-1596586] | -94 | 0.8 | 5.7 | 63.5 | 80 | 100 | 94 | 84 | 100 | 100 | 65 | 100 | 100 | 99 | 79 | 100 | 86 | 77 | 79 | 100 | residual activity [21]: 100%; residual activity [22]: 100%; residual activity [23]: 81%; residual activity [24]: 81%; residual activity [25]: 94%; residual activity [26]: 94%; residual activity [27]: 100%; residual activity [28]: 85%; inhibition [29]: 29.2%; inhibition [30]: 20.7%; inhibition [31]: 49% |

— ChEMBL document CHEMBL4507262, “Data for DCP probe A-1596586” (2021)
